In the supplement of paper PMC11208160:

Test: recombinant barcode read abundance after kanamycin selection (control-corrected) (log10(CPM+1)); higher = more efficient recombination; sequences stand for … in AGTGCAGAGAAAATCGGCCAGTTTTCTCTGCCTGCAGTCCGCATGCCGT…AGATTTATGCAGCGGACTGCCTTTCTCCCAAAGTGATAAACCGGACAGTATCATGGACCGGTTTTCCCGGTAATCCGTATTTGCAAGGTTGGTTTCACT; site = the 11-nt target
Method in brief: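 Values are log10(CPM+1) from a pooled E. coli screen of targets paired with IS621 bridge RNA target-binding loops. Recombination efficiency here means counts per million of recombinant-junction barcodes, averaged and control-corrected. Plates were chloramphenicol/ampicillin LB agar for the control and chloramphenicol/ampicillin/kanamycin with 0.1 mM IPTG, two replicates each.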
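Note: IS621 recombinase and bridge RNA in Escherichia coli cells.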

Compared with “GTGTGTCCTTGGGTTCTAACCTGTTGCAT (site GTGTCTCCTAT)”, “GTGTGTCCTTGGGTTCTAACCTGTTGCAT (site GTGTGTCCTAT)” is higher in “recombinant barcode read abundance (log10)” value: 0.122 for the first, 1.7 for the second.

Compared with “GTGTGTCCTTGGGTTCTAACCTGTTGCAT (site GTGTTTCCTAT)”, “GTGTTTCCTTGGGTTCTAACCTGTTGCAT (site GTGTATCCTAT)” is higher in “recombinant barcode read abundance (log10)” value: 0.052 for the first, 0.654 for the second.

“GTGTTTCCTTGGGTTCTAACCTGTTGCAT (site GTGTCTCCTAT)” and “GTGTTTCCTTGGGTTCTAACCTGTTGCAT (site GTGTGTCCTAT)” are within 0.2 log units of each other in “recombinant barcode read abundance (log10)” value: 0.081 for the first, 0.0468 for the second.

Compared with “GTGTTTCCTTGGGTTCTAACCTGTTGCAT (site GTGTTTCCTAT)”, “GTTAACTCTTGGGTTCTAACCTGTTGCCT (site GTAAACTCTAG)” is lower in “recombinant barcode read abundance (log10)” value: 0.832 for the first, 0.2 for the second.

“GTTAACTCTTGGGTTCTAACCTGTTGCCT (site GTCAACTCTAG)” and “GTTAACTCTTGGGTTCTAACCTGTTGCCT (site GTGAACTCTAG)” are within 0.2 log units of each other in “recombinant barcode read abundance (log10)” value: 0.51 for the first, 0.34 for the second.

“GTTAACTCTTGGGTTCTAACCTGTTGCCT (site GTTAACTCTAG)” and “GTTACACCTTGGGTTCTAACCTGTTGCCT (site GTTACACCTAG)” are within 0.2 log units of each other in “recombinant barcode read abundance (log10)” value: 0.877 for the first, 0.848 for the second.

“GTTACACCTTGGGTTCTAACCTGTTGCCT (site GTTTCACCTAG)” and “GTTACTACTTGGGTTCTAACCTGTTGCCG (site GTTACTACTCG)” are within 0.2 log units of each other in “recombinant barcode read abundance (log10)” value: 0.187 for the first, 0.13 for the second.

Compared with “GTTACTACTTGGGTTCTAACCTGTTGCCG (site TGGTACCCTTA)”, “GTTCAGACTTGGGTTCTAACCTGTTGCTT (site CCAAGTCCTTG)” is higher in “recombinant barcode read abundance (log10)” value: 0.0233 for the first, 0.284 for the second.

Going from “GTTCAGACTTGGGTTCTAACCTGTTGCTT (site GTTCAGACTAA)” to “GTTCATCCTTGGGTTCTAACCTGTTGCCT (site GATCATCCTAG)”, the “recombinant barcode read abundance (log10)” value falls from 1.06 to 0.48.

Compared with “GTTCATCCTTGGGTTCTAACCTGTTGCCT (site GTTCATCCTAG)”, “GTTCGTCCTTGGGTTCTAACCTGTTGCCA (site CCAATGTCTAC)” is lower in “recombinant barcode read abundance (log10)” value: 1.02 for the first, 0.104 for the second.

“GTTCGTCCTTGGGTTCTAACCTGTTGCCA (site GTTCGTCCTTG)” and “GTTGGGACTTGGGTTCTAACCTGTTGCCT (site GTTGGAACTAC)” are within 0.2 log units of each other in “recombinant barcode read abundance (log10)” value: 0.0879 for the first, 0.109 for the second.

Compared with “GTTGGGACTTGGGTTCTAACCTGTTGCCT (site GTTGGGACTAG)”, “GTTGGGGCTTGGGTTCTAACCTGTTGCGG (site CTTGGGCCTCC)” is lower in “recombinant barcode read abundance (log10)” value: 2 for the first, 0.019 for the second.

First: GTTGGGGCTTGGGTTCTAACCTGTTGCGG (site GTTGGGGCTCC)
Second: GTTGGTCCTTGGGTTCTAACCTGTTGCCT (site GTGGTTCCTAG)
The “recombinant barcode read abundance (log10)” value of the first is higher: 2 for the first, 0.114 for the second.

Compared with “GTTGGTCCTTGGGTTCTAACCTGTTGCCT (site GTTGGTCCTAG)”, “GTTTAATCTTGGGTTCTAACCTGTTGCCT (site GTTTAATCTAG)” is lower in “recombinant barcode read abundance (log10)” value: 1.75 for the first, 0.216 for the second.

“GTTTAATCTTGGGTTCTAACCTGTTGCCT (site GTTTAGTCTAG)” and “GTTTATACTTGGGTTCTAACCTGTTGCCA (site AGAGTAGCTGT)” are within 0.2 log units of each other in “recombinant barcode read abundance (log10)” value: 0.233 for the first, 0.0898 for the second.

Compared with “GTTTATACTTGGGTTCTAACCTGTTGCCA (site GTTTATACTTG)”, “GTTTCACCTTGGGTTCTAACCTGTTGCCT (site GTTACACCTAG)” is lower in “recombinant barcode read abundance (log10)” value: 0.41 for the first, 0.128 for the second.

Compared with “GTTTCACCTTGGGTTCTAACCTGTTGCCT (site GTTTCACCTAG)”, “GTTTCGACTTGGGTTCTAACCTGTTGCCT (site GTTTCGACTAG)” is lower in “recombinant barcode read abundance (log10)” value: 0.491 for the first, 0.128 for the second.

“GTTTCGACTTGGGTTCTAACCTGTTGCCT (site GTTTCGTCTAG)” and “GTTTCGACTTGGGTTCTAACCTGTTGCTA (site GTTTCGACTTA)” are within 0.2 log units of each other in “recombinant barcode read abundance (log10)” value: 0.173 for the first, 0.238 for the second.

“GTTTCGACTTGGGTTCTAACCTGTTGCTA (site TCGGATGCTAT)” and “GTTTCGGCTTGGGTTCTAACCTGTTGCCT (site GTTACGGCTAG)” are within 0.2 log units of each other in “recombinant barcode read abundance (log10)” value: 0.188 for the first, 0.041 for the second.

Compared with “GTTTCGGCTTGGGTTCTAACCTGTTGCCT (site GTTCCGGCTAG)”, “GTTTCGGCTTGGGTTCTAACCTGTTGCCT (site GTTGCGGCTAG)” is lower in “recombinant barcode read abundance (log10)” value: 0.357 for the first, 0.101 for the second.

Going from “GTTTCGGCTTGGGTTCTAACCTGTTGCCT (site GTTTCGGCTAG)” to “GTTTGGCCTTGGGTTCTAACCTGTTGCTT (site GTTTGACCTAA)”, the “recombinant barcode read abundance (log10)” value falls from 0.342 to 0.

With “GTTTGGCCTTGGGTTCTAACCTGTTGCTT (site GTTTGCCCTAA)” the “recombinant barcode read abundance (log10)” value was 0.154.
